Data on one compound can be found in patent publication US20220226283A1, “COMBINATION PRODUCT CONTAINING LIMONOID COMPOUND AND DPP-4 INHIBITOR” (ZHEJIANG YANGSHENGTANG INSTITUTE OF NATURAL MEDICATION CO., …, priority 2019, published 2022).

The test system of this assay is mouse model of type II diabetes with pancreatic islet damage and obesity (ICR mice, STZ and high-fat diet). Nature of the assay: Blood glucose in mouse type II diabetes model with pancreatic islet damage and obesity (limonoid compound, alogliptin or combination). Format: in vivo. Conditions: single administration 0.5 g/kg per day by gavage, two weeks, 1 h after the last administration, mean ± SD. The text has this: In this example, a mouse model of type II diabetes with pancreatic islet damage and obesity was established by multiple modeling ICR mice with a small dose of streptozotocin (STZ), following with continuous high-fat diets (referring to literature: Zhang Jiyuan et al, Study on the effect of three plant extracts on improving glucose and lipid metabolism in type 2 diabetic mice, Food and Machinery, 2016, 32 (12): 142-147). […]
Experimental grouping: 15 male mice were randomly selected as the normal control group, and the remaining mice were subjected to a high-fat diet (high-fat diet formula: cholesterol 1%, egg yolk powder 10%, lard oil 10%, and basic feed 79%, for establishing an obesity mouse model) for consecutive 4 weeks and intraperitoneal injection of STZ at a dose of 35 mg/kg for three consecutive days. After one week, the mice were subject to 24 hours of fasting and water deprivation, their fasting blood glucose was measured, and the mice with a blood glucose level of 15 to 25 mmol/L were selected and undifferentiatedly grouped and used in the experiment, continuously subjected to the high-fat diet, 15 mice in each group, and subjected to blood sampling and detection of indicators after 2 weeks of administration. […]

With `Cn1c(=O)cc(N2CCC[C@@H](N)C2)n(Cc2ccccc2C#N)c1=O` [Alogliptin, alogliptin], the Blood glucose value is reported as 14.5 ± 2.8 mmol/L.
